# pIC50: −log10 of the molar value.
# Molecular target: Protease (Human immunodeficiency virus 1, UniProt Q9YQ12)
# Test: Inhibition of wild type HIV1 protease expressed in Escherichia coli using Arg-Glu (EDANS)-Ser-Gln-Asn-Tyr-Pro-Ile-Val-Gln-Lys(DABCYL)-Arg as substrate preincubated for 20 to 30 mins followed by substrate addition and measured for 10 mins by FRET assay
# Chain of Protease (Q9YQ12 whole entry): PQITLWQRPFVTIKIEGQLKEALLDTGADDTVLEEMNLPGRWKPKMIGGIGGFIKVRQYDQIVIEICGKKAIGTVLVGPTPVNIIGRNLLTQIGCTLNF
row,Compound,pIC50
1,CC(C)CN(C[C@@H](O)[C@H](Cc1ccccc1)NC(=O)Cn1cnc2c(N)ncnc21)S(=O)(=O)c1ccc([N+](=O)[O-])cc1,5.45
2,CC(C)CN(C[C@@H](O)[C@H](Cc1ccccc1)NC(=O)Cn1cnc2cnc(N)nc21)S(=O)(=O)c1ccc([N+](=O)[O-])cc1,5.43
3,CC(C)CN(C[C@@H](O)[C@H](Cc1ccccc1)NC(=O)Cn1cnc2c(Cl)nc(N)nc21)S(=O)(=O)c1ccc(N)cc1,4.93
4,CC(C)CN(C[C@@H](O)[C@H](Cc1ccccc1)NC(=O)Cn1cnc2cncnc21)S(=O)(=O)c1ccc(N)cc1,6.24
5,Cc1nc2cncnc2n1CC(=O)N[C@@H](Cc1ccccc1)[C@H](O)CN(CC(C)C)S(=O)(=O)c1ccc(N)cc1,6.19
6,COc1ncnc2c1ncn2CC(=O)N[C@@H](Cc1ccccc1)[C@H](O)CN(CC(C)C)S(=O)(=O)c1ccc([N+](=O)[O-])cc1,5.59
7,COc1ccc(S(=O)(=O)N(CC(C)C)C[C@@H](O)[C@H](Cc2ccccc2)NC(=O)Cn2cnc3c(N)ncnc32)cc1,5.70
8,CC(C)CN(C[C@@H](O)[C@H](Cc1ccccc1)NC(=O)Cn1cnc2c(Cl)ncnc21)S(=O)(=O)c1ccc(N)cc1,5.15
9,CC(C)CN(C[C@@H](O)[C@H](Cc1ccccc1)NC(=O)Cn1cnc2c(O)ncnc21)S(=O)(=O)c1ccc(N)cc1,5.74
10,CC(C)CN(C[C@@H](O)[C@H](Cc1ccccc1)NC(=O)Cn1cnc2c(Cl)nc(N)nc21)S(=O)(=O)c1ccc([N+](=O)[O-])cc1,6.02
11,COc1nc(N)nc2c1ncn2CC(=O)N[C@@H](Cc1ccccc1)[C@H](O)CN(CC(C)C)S(=O)(=O)c1ccc([N+](=O)[O-])cc1,5.76
12,Cc1ncnc2c1ncn2CC(=O)N[C@@H](Cc1ccccc1)[C@H](O)CN(CC(C)C)S(=O)(=O)c1ccc(N)cc1,5.42
13,CC(C)CN(C[C@@H](O)[C@H](Cc1ccccc1)NC(=O)Cn1cnc2cnc(N)nc21)S(=O)(=O)c1ccc(N)cc1,5.17
14,CC(C)CN(C[C@@H](O)[C@H](Cc1ccccc1)NC(=O)Cn1cnc2c(O)ncnc21)S(=O)(=O)c1ccc([N+](=O)[O-])cc1,5.61
15,Cc1nc2cncnc2n1CC(=O)N[C@@H](Cc1ccccc1)[C@H](O)CN(CC(C)C)S(=O)(=O)c1ccc([N+](=O)[O-])cc1,6.24
16,CC(C)CN(C[C@@H](O)[C@H](Cc1ccccc1)NC(=O)Cn1cnc2c(O)nc(N)nc21)S(=O)(=O)c1ccc([N+](=O)[O-])cc1,6.10
17,COc1ccc(S(=O)(=O)N(CC(C)C)C[C@@H](O)[C@H](Cc2ccccc2)NC(=O)Cn2c(C)nc3cncnc32)cc1,6.82

row,Compound,pIC50
1,COc1ccc(S(=O)(=O)N(CC(C)C)C[C@@H](O)[C@H](Cc2ccccc2)NC(=O)Cn2cnc3cncnc32)cc1,6.62
2,COc1ccc(S(=O)(=O)N(CC(C)C)C[C@@H](O)[C@H](Cc2ccccc2)NC(=O)Cn2cnc3c(OC)ncnc32)cc1,6.74
3,CC(C)CN(C[C@@H](O)[C@H](Cc1ccccc1)NC(=O)Cn1cnc2c(Cl)ncnc21)S(=O)(=O)c1ccc([N+](=O)[O-])cc1,6.51
4,COc1ncnc2c1ncn2CC(=O)N[C@@H](Cc1ccccc1)[C@H](O)CN(CC(C)C)S(=O)(=O)c1ccc(N)cc1,5.82
5,COc1ccc(S(=O)(=O)N(CC(C)C)C[C@@H](O)[C@H](Cc2ccccc2)NC(=O)Cn2cnc3c(OC)nc(N)nc32)cc1,6.34
6,COc1ccc(S(=O)(=O)N(CC(C)C)C[C@@H](O)[C@H](Cc2ccccc2)NC(=O)Cn2cnc3c(O)nc(N)nc32)cc1,7.10
7,CC(C)CN(C[C@@H](O)[C@H](Cc1ccccc1)NC(=O)Cn1cnc2c(O)nc(N)nc21)S(=O)(=O)c1ccc(N)cc1,5.33
8,COc1ccc(S(=O)(=O)N(CC(C)C)C[C@@H](O)[C@H](Cc2ccccc2)NC(=O)Cn2cnc3c(C)ncnc32)cc1,7.38
9,Cc1ncnc2c1ncn2CC(=O)N[C@@H](Cc1ccccc1)[C@H](O)CN(CC(C)C)S(=O)(=O)c1ccc([N+](=O)[O-])cc1,5.60
10,COc1ccc(S(=O)(=O)N(CC(C)C)C[C@@H](O)[C@H](Cc2ccccc2)NC(=O)Cn2cnc3c(O)ncnc32)cc1,7.17
11,CC(C)CN(C[C@@H](O)[C@H](Cc1ccccc1)NC(=O)Cn1cnc2cncnc21)S(=O)(=O)c1ccc([N+](=O)[O-])cc1,5.59
12,COc1ccc(S(=O)(=O)N(CC(C)C)C[C@@H](O)[C@H](Cc2ccccc2)NC(=O)Cn2cnc3cnc(N)nc32)cc1,6.44
13,COc1nc(N)nc2c1ncn2CC(=O)N[C@@H](Cc1ccccc1)[C@H](O)CN(CC(C)C)S(=O)(=O)c1ccc(N)cc1,6.72
14,COc1ccc(S(=O)(=O)N(CC(C)C)C[C@@H](O)[C@H](Cc2ccccc2)NC(=O)Cn2cnc3c(Cl)ncnc32)cc1,7.37
15,CC(C)CN(C[C@@H](O)[C@H](Cc1ccccc1)NC(=O)Cn1cnc2c(N)ncnc21)S(=O)(=O)c1ccc(N)cc1,5.91
16,COc1ccc(S(=O)(=O)N(CC(C)C)C[C@@H](O)[C@H](Cc2ccccc2)NC(=O)Cn2cnc3c(Cl)nc(N)nc32)cc1,6.24

# Source: ChEMBL document CHEMBL4340543, “Synthesis and biological evaluation of new HIV-1 protease inhibitors with purine bases as P2-ligands” (Bioorg Med Chem Lett, 2019)
